Laboratory results taken from patent US20210030714A1, “COMPOUNDS FOR USE IN THE TREATMENT OF BRAIN DISEASES” (UNIVERSITA DEGLI STUDI DI ROMA "LA SAPIENZA", priority 2018, published 2021).
“Also recorded” adds a separate entry of the source.

Key:
[1] = test system: GL261 murine glioma cells; assay: GL261 cell growth assay (MTT salt); assay type: cell-based; details: 5 μM GlaB, in vitro, starting from 48 h of treatment, N=3, p<0.001
Description: The GL261 murine glioma cells (Leibniz-Institute DMSZ, ACC802) are grown in an incubator at 37° C. and 5% CO2 in a culture medium containing D-MEM (GIBCO), 20% fetal bovine serum (GIBCO), antibiotics (100 IU/ml penicillin G, 100 μg/ml streptomycin, 2.5 μg/ml amphotericin B), 2 mM glutamine and 1 mM pyruvate sodium.
GL261 murine glioma cells were seeded in culture medium in 96-well plates (5000 cells/well). After 4 h they were treated with 5 μM GlaB (C. Ingallina, P. M. Costa, F. Ghirga, R. Klippstein, J. T. Wang, S. Berardozzi, N. Hodgins, P. Infante, S. M. Pollard, B. Botta, K. T. Al-Jamal. Polymeric glabrescione B nanocapsules for passive targeting of Hedgehog-dependent tumor therapy in vitro. Nanomedicine, (2017), 12(7), 711-728. DOI: 10.2217/nnm-2016-0388) or the vehicle in which it is dissolved (DMSO) and every 24 h for three days their growth was evaluated using the dehydrogenation method of MTT salt (3-(4,5-dimetiltiazol-2-yl)-2,5-diphenyltetrazolium bromide, Sigma-Aldrich). The MTT salt was added to each well containing culture medium at the concentration of 0.5 mg/ml, and after 2 h of incubation at 37° C., cell growth was measured by measuring the spectrophotometer, at a wavelength of 570 nm, the absorbance values related to the amount of MTT salt transformed into formazan (insoluble violet-colored salt) simultaneously by live control cells and cells treated with GlaB.

[2] = test system: murine glioma GL261 cells; assay: Orthotopic GL261 glioma in mice, tumor volume (procedure A); assay type: in vivo, mice (C57BL/6); details: for tumor volume: every two days, N=7, vehicle ethanol:2-hydroxypropyl-beta-cyclodextrin 1:5
Description: Male wild type (C57BL/6) mice were inoculated with murine glioma cells (GL261, Leibniz-Institute DMSZ, ACC802) at the age of 8 weeks (animals weighing an average weight of 22 g). After being anesthetized by intraperitoneal injection of 50 mg/kg Zoletil anaesthetic (combination of tiletamine hypochloride and zolazepam hypochloride) associated with 10 mg/kg Rompun (xylazine), the animals were subjected to orthotopic injection (subcortical/striatum, […] anteroposterior, −2 mm lateral to the bregma) of GL261 cells (1×10^5 cells per mouse) using a stereotaxic apparatus to accurately and reproducibly reach the right striatal region. The cells, resuspended in 5 μl of phosphate buffer, were injected by the use of a Hamilton syringe connected to the stereotaxic apparatus.
GlaB dissolved in the vehicle constituted by ethanol (Sigma-Aldrich #51976): 2-hydroxypropyl-beta-cyclodextrin (Sigma-Aldrich #C0926) solution (10% (w/v) in H2O) in a 1:5 volume ratio was administered by intraperitoneal injections (ip, 35 mg/kg) and intranasally (in, 4.4 mg/kg), every two days after 7 days from the implantation of tumor cells for a total of 6 days of treatment. Intranasal administration was performed through the so-called “snort delivery”: drops of the medicament were sniffed by the animal, anesthetized with 2.5% Isofluorane, until reaching the upper nasal cavity.
The day after the last administration of GlaB, mice were perfused with phosphate buffer and then 4% PFA and their brain isolated, further fixed and frozen. After about 48 h each frozen brain was cut into subsequent coronal slices, 20 μm thick, collected at 100 μm intervals. The determination of tumor volume was performed by histological staining (hematoxylin and eosin) of the brain slices: the tumor mass is recognizable because it has a darker color compared to the remaining healthy tissue. The tumor volume is calculated through analysis of images obtained under a phase contrast microscope (ECLIPSE Ti-S, Nikon) using commercial software released in the public domain (ImageJ, National Institutes of Health of the United States) able to measure the tumor area in each slice, necessary for volume calculation.

[3] = GlaB brain level concentration by HPLC-ESI-MS after intranasal administration; assay type: in vivo, mice
Description: For HPLC analysis, mice were treated as above and sacrificed two hours post one single nasal administration; brains were collected and frozen (−80° C.) until use.
HPLC analyses were performed on brain samples from mice treated with GlaB/PEG-Cholane. The brain sample (500 mg), previously stored at −80° C. for 24 hours, was homogenized with 1 mL of a Phosphate Buffered Saline solution, PBS, using an ultrasound probe. A solution of ZnSO4 (0.1 M in H2O, 1 mL) and acetonitrile (1 mL) were added to the mixture, which was further homogenized with ultrasound for 15 minutes. Subsequently, the brain homogenate was stirred for 1 hour at room temperature and was then centrifuged at 3000 g for 5 min at T=4° C. The supernatant was collected. The following procedure to obtain a brain extract was repeated twice. Acetonitrile (1 mL) was added to the brain residue, stirred for 30 minutes at room temperature, then centrifuged at 3000 g for 5 min at T=4° C. and the supernatant collected. Brain extracts samples were centrifuged for five minutes at 5000 rpm and 20 μL of supernatant injected into the HPLC without further treatments.
The HPLC chromatographic system used was an UltiMate 3000 RS system (Thermo Fisher Dionex Sunnyvale, Calif.), equipped with an UltiMate 3000 LPG-3400RS Low Pressure Mixing Biocompatible Gradient Pump, an in-line split-loop well plate sampler, a thermostated column ventilated compartment (temperature range: 5-110° C.) and a diode array detector (UltiMate 3000 DAD-3000RS Rapid Separation Diode Array Detector, up to 200 Hz acquisition rate) with a low dispersion 13 μL flow cell. […]
Calibration standards ranged from 0.128 to 8.2 μg/mL for UV curve (y=0.2574x−0.2042, R2=0.9997) with a Limit of Quantitation, LOQ, (defined for a signal-to-noise ratio >10) of 4.1 ng on column, whereas calibration curve ranged 0.128-8.2 μg/ml for MS (y=11176x−1505.9) showing a correlation coefficient (r^2) equal to 0.9991.
A known amount (0.5 μg/mL) of the GlaB analyte (a spike) was added to treated brain sample. The samples and the samples plus spike were then analyzed. […]

## COc1cc(OC)c2c(=O)c(-c3ccc(OCC=C(C)C)c(OCC=C(C)C)c3)coc2c1 [GlaB, Glabrescione B]
[1]
  growth of GL261 tumor cells (MTT absorbance) compared to vehicle (DMSO): reduce their growth capacity; also recorded: significant reduction
[2]; intranasal formulation in ethanol:2-hydroxypropyl-beta-cyclodextrin solution (1:5 by volume), 4.4 mg/kg
  tumor volume reduction: about 70%
[2]; intranasal, 4.4 mg/kg
  glioma volume in vivo compared to control solution: significantly reduce glioma volume
  tumor volume: 0.21 mm³
[2]; intraperitoneal, 35 mg/kg
  glioma volume in vivo compared to control solution: significantly reduce glioma volume
  tumor volume: 0.48 mm³
[3]; C57BL/6, mouse, brain, other: nasal administration (intranasal), 1.44 mg/Kg, mice, two hours post one single nasal administration of GlaB/PEG-Cholane, read-out: estimated brain level concentration
  concentration at 2 h: 3600 ng/g
[3]; intranasally GlaB/PEG-Cholane treated mice vs control PEG-Cholane treated mice
  GlaB peak in extract ion chromatogram of brain extract (drug reaches brain): presence of GlaB peak
[3]; mice, two hours post one single nasal administration of GlaB/PEG-Cholane, HPLC-MS SIM m/z 451
  GlaB quantified in brain extract, amount on column: 6 ng on column
